Like-named read-outs stand apart in the source and are kept apart here.

The target of assay [1] is T1, hMC-4R (Homo sapiens, UniProt P32245).
T1 construct: expressed in transfected cells; host or cells: HEK293 cells (membrane preparations)
The experiment in a line: Functional assay: membrane based cAMP fluorescence polarization assay for agonistic activity. Type of assay: biochemical. The following applies: read-out: % activation functional assay. Background: Polarisation of emitted light reports the rotation of a fluorescent probe.

The target in assay [2] is T1, hMC-4R. The experiment in a line: Membrane binding assay: competition with fluorescence labeled NDP-alpha-MSH, fluorescence polarization. On the procedure: A membrane binding assay is used to identify competitive inhibitors of fluorescence labeled NDP-alpha-MSH binding to HEK293 cell membrane preparations expressing human melanocortin receptors.
The test compound or unlabeled NDP-alpha-MSH is dispensed at varying concentrations to a 384 well microtiter plate. Fluorescence labeled NDP-alpha-MSH is dispensed at a single concentration, followed by addition of membrane preparations. The plate is incubated for 5 h at room temperature.
The degree of fluorescence polarization is determined with a fluorescence polarization microplate reader.

Where [3] appears, read: HEK293 cell membrane preparations expressing human melanocortin receptors, 5 h at room temperature, read-out: hMC-4R binding assay IC50.

T1 sequence (P32245 whole entry): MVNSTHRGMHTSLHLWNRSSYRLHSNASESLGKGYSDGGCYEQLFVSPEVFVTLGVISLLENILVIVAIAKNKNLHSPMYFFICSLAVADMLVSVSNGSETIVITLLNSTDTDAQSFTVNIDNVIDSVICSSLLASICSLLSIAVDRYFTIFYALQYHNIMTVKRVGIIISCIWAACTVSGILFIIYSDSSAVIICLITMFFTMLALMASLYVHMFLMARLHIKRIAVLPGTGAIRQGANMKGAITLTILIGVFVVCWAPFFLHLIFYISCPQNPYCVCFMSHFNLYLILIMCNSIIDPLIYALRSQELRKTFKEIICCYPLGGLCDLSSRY

For the compound `CCOC(=O)c1nc2ccc(C(=O)N(CCC(C)C)CCC(C)C)cn2c1C#CCN1CCCC1` [Example 1], the Emax at hMC-4R [1] worked out at 0%. The compound further registered an IC50 at hMC-4R [2] of 100 to 1000 nM.

`CC(C)CCN(CCC(C)C)C(=O)c1ccc2ncc(C#CCN3CCCC3)n2c1` [Example 2]: the Emax at hMC-4R [1] is 0%. Besides, at hMC-4R [2] (setting [3]), the IC50 lay in the range of 100 to 1000 nM.

Take `CC(C)CCN(CCC(C)C)C(=O)c1ccc2nc(-c3ccccc3)c(C#CCN3CCCC3)n2c1` [Example 3]: on hMC-4R [1], the Emax amounted to 0%. For the same compound, the IC50 at hMC-4R [2] (setting [3]) was greater than 1000 nM.

Take `CC(C)CCN(CCC(C)C)C(=O)c1ccc2nc(C#Cc3ccccc3)c(C#CCN3CCCC3)n2c1` [Example 4]: the Emax at hMC-4R [1] amounted to 5%. In addition, at hMC-4R [2] (setting [3]), the IC50 lay within 100 to 1000 nM.

As for `CC(C)CCN(CCC(C)C)C(=O)c1ccc2nc(-c3cnco3)c(C#CCN3CCCC3)n2c1` [Example 5], on hMC-4R [1], the Emax worked out at 0%. The IC50 at hMC-4R [2] (setting [3]) is less than 100 nM.

As to `CC(C)CCN(CCC(C)C)C(=O)c1ccc2nc(C#N)c(C#CCN3CCCC3)n2c1` [Example 6], on hMC-4R [1], the Emax worked out at 6%. The compound also had an IC50 at hMC-4R [2] greater than 1000 nM.

In the case of `CC(C)CCN(CCC(C)C)C(=O)c1ccc2nc(-c3ccoc3)c(C#CCN3CCCC3)n2c1` [Example 7], the Emax on hMC-4R [1] is 3%. Also, on hMC-4R [2] (setting [3]), the 50% inhibitory concentration (IC50) lay in the range of 100 to 1000 nM.

With `CC(C)CCN(CCC(C)C)C(=O)c1ccc2nc(-c3ccco3)c(C#CCN3CCCC3)n2c1` [Example 8], the Emax on hMC-4R [1] worked out at 5%. Besides, the IC50 at hMC-4R [2] (setting [3]) lay within 100 to 1000 nM.

Turning to `CC(C)CCN(CCC(C)C)C(=O)c1ccc2nc(Nc3ncccn3)c(C#CCN3CCCC3)n2c1` [Example 9], the Emax on hMC-4R [1] is -12%. The IC50 on hMC-4R [2] (setting [3]) lay in the range of 100 to 1000 nM.

Take `CC(C)CCN(CCC(C)C)C(=O)c1ccc2nc(N3CCOCC3)c(C#CCN3CCCC3)n2c1` [Example 10]: the Emax at hMC-4R [1] turned out to be 0%. Also, the half-maximal inhibitory concentration (IC50) on hMC-4R [2] (setting [3]) is 100 to 1000 nM.

`CC(C)CCN(CCC(C)C)C(=O)c1ccc2nc(Nc3ccccn3)c(C#CCN3CCCC3)n2c1` [Example 11]: on hMC-4R [1], the Emax was -7%. On hMC-4R [2] (setting [3]), the IC50 is less than 100 nM.

For the compound `COc1cccc(Nc2nc3ccc(C(=O)N(CCC(C)C)CCC(C)C)cn3c2C#CCN2CCCC2)c1` [Example 12], on hMC-4R [1], the Emax is -3%. The IC50 at hMC-4R [2] (setting [3]) is less than 100 nM.

For `CC(C)CCN(CCC(C)C)C(=O)c1ccc2nc(N(C)c3ccccn3)c(C#CCN3CCCC3)n2c1` [Example 13], on hMC-4R [1], the Emax is -4%. In addition, the IC50 on hMC-4R [2] (setting [3]) fell in the range of 100 to 1000 nM.

Consider `COc1cccc(N(C)c2nc3ccc(C(=O)N(CCC(C)C)CCC(C)C)cn3c2C#CCN2CCCC2)c1` [Example 14], for which, on hMC-4R [1], the Emax was found to be 0%. In addition, on hMC-4R [2] (setting [3]), the half-maximal inhibitory concentration (IC50) was in the range of 100 to 1000 nM.

On to `CC(C)CCN(CCC(C)C)C(=O)c1ccc2nc(-c3cnn(CC4OCCO4)c3)c(C#CCN3CCCC3)n2c1` [Example 15], for which the Emax on hMC-4R [1] is -4%. The IC50 at hMC-4R [2] (setting [3]) was less than 100 nM.

As for `CC(C)CCN(CCC(C)C)C(=O)c1ccc2nc(C3=CCN(C(=O)OC(C)(C)C)CC3)c(C#CCN3CCCC3)n2c1` [Example 16], the Emax at hMC-4R [1] was -11%. Besides, the concentration for half-maximal inhibition (IC50) on hMC-4R [2] (setting [3]) was greater than 1000 nM.

Consider `CC(C)CCN(CCC(C)C)C(=O)c1ccc2nc(-c3cn[nH]c3)c(C#CCN3CCCC3)n2c1` [Example 17], for which, at hMC-4R [1], the Emax is -6%. In addition, at hMC-4R [2] (setting [3]), the IC50 was less than 100 nM.

As to `COc1cc(Nc2nc3ccc(C(=O)N(CCC(C)C)CCC(C)C)cn3c2C#CCN2CCCC2)ccc1F` [Example 18], the Emax on hMC-4R [1] is -5%. The IC50 on hMC-4R [2] (setting [3]) is less than 100 nM.

Turning to `COc1cc(Nc2nc3ccc(C(=O)N(CCC(C)C)CCC(C)C)cn3c2C#CCN2CCCC2)ccn1` [Example 19], the Emax at hMC-4R [1] was -13%. The IC50 at hMC-4R [2] (setting [3]) is less than 100 nM.

Turning to `COc1ccc(Nc2nc3ccc(C(=O)N(CCC(C)C)CCC(C)C)cn3c2C#CCN2CCCC2)cn1` [Example 20], the Emax at hMC-4R [1] is -16%. In addition, the half-maximal inhibitory concentration (IC50) on hMC-4R [2] (setting [3]) is less than 100 nM.

For the compound `CC(C)CCN(CCC(C)C)C(=O)c1ccc2nc(-c3ccc4nccn4c3)c(C#CCN3CCCC3)n2c1` [Example 21], at hMC-4R [1], the Emax was -12%. Further, the IC50 at hMC-4R [2] (setting [3]) was less than 100 nM.

`CC(C)CCN(CCC(C)C)C(=O)c1ccc2nc(-c3ccc(F)c(F)c3)c(C#CCN3CCCC3)n2c1` [Example 22]: the Emax at hMC-4R [1] is 0%. The IC50 at hMC-4R [2] (setting [3]) was 100 to 1000 nM.

Turning to `COc1ncc(-c2nc3ccc(C(=O)N(CCC(C)C)CCC(C)C)cn3c2C#CCN2CCCC2)cc1F` [Example 23], the Emax at hMC-4R [1] was -9%. Besides, the IC50 on hMC-4R [2] (setting [3]) was in the range of 100 to 1000 nM.

As for `COc1cc(-c2nc3ccc(C(=O)N(CCC(C)C)CCC(C)C)cn3c2C#CCN2CCCC2)ccc1F` [Example 24], at hMC-4R [1], the Emax is -2%. For the same compound, the IC50 at hMC-4R [2] (setting [3]) lay in the range of 100 to 1000 nM.

With `COc1cc(F)cc(-c2nc3ccc(C(=O)N(CCC(C)C)CCC(C)C)cn3c2C#CCN2CCCC2)c1` [Example 25], the Emax on hMC-4R [1] is -2%. Moreover, at hMC-4R [2] (setting [3]), the IC50 is greater than 1000 nM.

As for `CC(C)CCN(CCC(C)C)C(=O)c1ccc2nc(-c3ccc(C#N)c(F)c3)c(C#CCN3CCCC3)n2c1` [Example 26], on hMC-4R [1], the Emax is -4%. The IC50 at hMC-4R [2] (setting [3]) lay within 100 to 1000 nM.

In the case of `CC(C)CCN(CCC(C)C)C(=O)c1ccc2nc(-c3cc(F)cc(F)c3)c(C#CCN3CCCC3)n2c1` [Example 27], the Emax on hMC-4R [1] is -3%. Besides, on hMC-4R [2] (setting [3]), the IC50 is greater than 1000 nM.

In the case of `COc1ccc(Nc2nc3ccc(C(=O)N(CCC(C)C)CCC(C)C)cn3c2C#CCN2CCCC2)cc1F` [Example 28], on hMC-4R [1], the Emax is -12%. In addition, the IC50 at hMC-4R [2] (setting [3]) was less than 100 nM.

On to `CC(C)CCN(CCC(C)C)C(=O)c1ccc2nc(-c3cnc4c(c3)OCCN4C)c(C#CCN3CCCC3)n2c1` [Example 29], for which the Emax at hMC-4R [1] was -5%. The IC50 on hMC-4R [2] (setting [3]) was less than 100 nM.

Regarding `Cc1n[nH]cc1-c1nc2ccc(C(=O)N(CCC(C)C)CCC(C)C)cn2c1C#CCN1CCCC1` [Example 30], the Emax on hMC-4R [1] is 4%. The concentration for half-maximal inhibition (IC50) on hMC-4R [2] (setting [3]) fell in the range of 100 to 1000 nM.

In the case of `Cc1cc(-c2nc3ccc(C(=O)N(CCC(C)C)CCC(C)C)cn3c2C#CCN2CCCC2)n(C)n1` [Example 31], the Emax at hMC-4R [1] turned out to be 3%. At hMC-4R [2] (setting [3]), the IC50 was in the range of 100 to 1000 nM.

In the case of `COc1cccc(-c2nc3ccc(C(=O)N(CCC(C)C)CCC(C)C)cn3c2C#CCN2CCCC2)n1` [Example 32], the Emax on hMC-4R [1] was -4%. Besides, the IC50 on hMC-4R [2] (setting [3]) was 100 to 1000 nM.

Turning to `CC(C)CCN(CCC(C)C)C(=O)c1ccc2nc(-c3ccc(=O)n(C)c3)c(C#CCN3CCCC3)n2c1` [Example 33], the IC50 on hMC-4R [2] (setting [3]) is less than 100 nM.

With `COc1ncc(-c2nc3ccc(C(=O)N(CCC(C)C)CCC(C)C)cn3c2C#CCN2CCCC2)cn1` [Example 34], the IC50 on hMC-4R [2] (setting [3]) is less than 100 nM.

For `CC(C)CCN(CCC(C)C)C(=O)c1ccc2nc(-c3ccc4nccnc4c3)c(C#CCN3CCCC3)n2c1` [Example 35], the concentration for half-maximal inhibition (IC50) at hMC-4R [2] (setting [3]) is less than 100 nM.

Regarding `CC(C)CCN(CCC(C)C)C(=O)c1ccc2nc(-c3c[nH]nc3C(F)(F)F)c(C#CCN3CCCC3)n2c1` [Example 36], the IC50 at hMC-4R [2] (setting [3]) lay within 100 to 1000 nM.

As usually defined, the IC50 is the concentration needed to halve the response being measured.

The values above are taken from patent EP2168965A1, “Substituted imidazopyridine, imidazopyrazine, imidazopyridazine and imidazopyrimidine derivatives as melanocortin-4 receptor antagonists” (Santhera Pharmaceuticals (Schweiz) AG, priority 2008, dated 2010).
